Reference: patent US20050209157A1, “Short bioactive peptides and methods for their use” (priority 2001, published 2005)
Converted amounts (≈) assume the structure as drawn. Read-outs that look alike come from different tables or passages of the source. No end group written: not given here.

Assays:
S. aureus (MRSA) = assay type: cell-based, Staphylococcus aureus; details: mean of three; 16 to 20 hours at 35° C.
S. epidermidis C621 = assay type: cell-based, Staphylococcus epidermidis; details: mean of three; 16 to 20 hours at 35° C.
S. pyogenes M76 = test: Antimicrobial assays II, NCCLS broth microdilution MIC; assay type: cell-based, Streptococcus pyogenes; details: mean of three; 16 to 20 hours at 35° C.
S. pyogenes ATCC19615 = test: as above; assay type: cell-based, Streptococcus pyogenes; details: mean of three, in µg/mL
S. pneumoniae C718 = test: as above; assay type: cell-based, Streptococcus pneumoniae; details: mean of three
S. pneumoniae C719 = test: as above; assay type: cell-based, Streptococcus pneumoniae; details: mean of three, in µg/mL
P. acne ATCC 6919 = test: as above; assay type: cell-based, Propionibacterium acnes; details: mean of three, in µg/mL
E. coli UB1005 = assay type: cell-based, Escherichia coli; details: mean of three; 16 to 20 hours at 35° C.; in µg/mL
S. typhimurium 14028S = assay type: cell-based, Salmonella typhimurium; details: mean of three; 16 to 20 hours at 35° C.; in µg/mL
P. aeruginosa H374 [1] = assay type: cell-based, Pseudomonas aeruginosa; details: mean of three; 16 to 20 hours at 35° C.
BMKC = test: Anti-cancer assay, MTT, LD50; assay type: cell-based; details: BMKC cloned melanoma line, 24 hours with peptide
From the text: (§1) Numbers are LD50 values (μg/mL).

H1299 = test: Anti-cancer assay, MTT, LD50; assay type: cell-based; details: 24 hours with peptide, lung large cell carcinoma
From the text: as §1

HeLaS3 = test: Anti-cancer assay, MTT, LD50; assay type: cell-based; details: 24 hours with peptide, cervical carcinoma
From the text: as §1

MCF7 = test: Anti-cancer assay, MTT, LD50; assay type: cell-based; details: MCF7 breast adenocarcinoma line, MTT, 24 hours with peptide
From the text: as §1

PC3 = test: Anti-cancer assay, MTT, LD50; assay type: cell-based; details: 24 hours with peptide, prostate adenocarcinoma
From the text: as §1

SW480 = test: Anti-cancer assay, MTT, LD50; assay type: cell-based; details: SW480 colon adenocarcinoma line, 24 hours with peptide
From the text: as §1

in vitro [2] = assay type: cell-based, human; details: human, human red blood cells, pH 7, hemolytic assay, concentration at 50% hemolysis, 1 hour at 37° C.; read-out: LD50
P. aeruginosa H374 [3] = assay type: cell-based, Pseudomonas aeruginosa; details: for MIC Cm-comb.: MIC of chloramphenicol with peptide at ¼ MIC; for MIC Nal-comb.: MIC of nalidixic acid with peptide at ¼ MIC; for FIC Index: 0.5 or less = synergy
Summary of the method: (§2)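 FIC index, computed as 0.25 plus the ratio of combination to single-agent antibiotic MIC, defines synergy when 0.5 or below. Peptide fixed at one quarter MIC while chloramphenicol or nalidixic acid was serially diluted two-fold; antibiotic-alone MICs served as baselines.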

P. aeruginosa H774 = assay type: cell-based, Pseudomonas aeruginosa; details: P. aeruginosa H744; nalidixic acid + peptide at ¼ MIC; 0.5 or less = synergy
Summary of the method: as §2

P. aeruginosa = assay type: cell-based, Pseudomonas aeruginosa; details: P. aeruginosa H744; MIC of nalidixic acid with peptide at ¼ MIC
Summary of the method: as §2

WI38 = details: MTT, 24 hours with peptide; normal fibroblast line
Method: (§3) Viability of cells is determined by the dye response. In the following procedure, approximately 1.5×10^4 cells per well were added and viability was determined with the cells in a semi-confluent state. The assay was performed in a 96-well microtiter plate. After addition of peptide, the plate was set for 24 hours. MTT (5 mg/ml in phenol red-free RPMI-1640, 20 μl) was added to each well including positive control wells untreated with peptide. The plate was incubated at 37° C. for 4 hours. The liquid contents of each well was removed, and isopropanol with 0.1 M HCl (100 μl) was added to each well. The plate was sealed with parafilm to prevent evaporation of the isopropanol. The plate is allowed to rest for 5-10 minutes in order to solubilize the precipitate. Purified water (100 μl) was added to each well. Absorbance was determined with an ELISA Reader instrument. Color intensity at 540 nm is proportional to viability of cells.
(§4) WI38 (ATCC No. CCL75) is a normal fibroblast line of lung diploid cells, MCF7 (ATCC No. HTB22) is a breast adenocarcinoma tumor cell line, SW480 (ATCC No. CCL228) is a colon adenocarcinoma tumor cell line, BMKC is a cloned melanoma line derived from Bowes melanoma line HMCB (ATCC No. CRL9607), H1299 (ATCC No. CRL5803) is a lung large cell carcinoma tumor line, HeLaS3 (ATCC No. CCL2.2) is a cervical epitheleal carcinoma tumor cell line, and PC3 (ATCC No. CRL1435) is a prostate adenocarcinoma tumor cell line.

in vitro [4] = details: human, WI38 normal lung fibroblast cells, LD50 WI38, WI38 normal lung fibroblast line, MTT, 24 hours with peptide
Method: as §3, §4

[5] = system: Pseudomonas aeruginosa ATCC 9027; test: Antimicrobial assay I, MIC by OD measurement; assay type: cell-based; details: 37° C. for 24 hours, absorbance 620 nm
[6] = system: Staphylococcus aureus ATCC 6538; test: Antimicrobial assay I, MIC by OD measurement; assay type: cell-based; details: 37° C. for 24 hours, absorbance 620 nm
[7] = system: yeast (Saccharomyces cerevisiae); test: Antimicrobial assay I, yeast assay in RPMI 1640; assay type: cell-based; details: RPMI 1640 media
[8] = chloramphenicol + peptide at ¼ MIC
[9] = nalidixic acid + peptide at ¼ MIC, FIC=0.25+MIC comb/MIC alone

| Molecule | S. aureus (MRSA) MIC (S. aureus (MRSA)) [µg/mL] | S. epidermidis C621 MIC (S. epidermidis C621) [µg/mL] | S. pyogenes M76 MIC (S. pyogenes M76) [µg/mL] | S. pyogenes MIC (S. pyogenes ATCC19615) | S. pneumoniae MIC (S. pneumoniae C718) [µg/mL] | S. pneumoniae MIC (S. pneumoniae C719) | P. acne MIC (P. acne ATCC 6919) | LD50 BMKC (BMKC) [µg/mL] | H1299 LD50 (H1299) [µg/mL] | HeLaS3 LD50 (HeLaS3) [µg/mL] | LD50 MCF7 (MCF7) [µg/mL] | PC3 LD50 (PC3) [µg/mL] | LD50 SW480 (SW480) [µg/mL] | HC50 at 1 h (in vitro [2]) [µg/mL] | MIC Cm-comb. (P. aeruginosa H374 [3]) [µg/mL] | MIC Nal-comb. (P. aeruginosa H374 [3]) [µg/mL] | FIC Index (P. aeruginosa H374 [3]; [8]) | FIC Index (P. aeruginosa H374 [3]; [9]) | FIC Index (P. aeruginosa H774) | MIC Nal-comb. (P. aeruginosa) [µg/mL] | also measured |
| --- | --- | --- | --- | --- | --- | --- | --- | --- | --- | --- | --- | --- | --- | --- | --- | --- | --- | --- | --- | --- | --- |
| CC(C)C[C@H](NC(=O)[C@H](C)NC(=O)[C@H](CC(C)C)NC(=O)[C@H](CCCCN)NC(=O)[C@H](C)NC(=O)[C@H](CC(C)C)NC(=O)[C@H](CCCCN)NC(=O)[C@H](CCCCN)NC(=O)[C@H](C)NC(=O)[C@H](CC(C)C)NC(=O)[C@H](CCCCN)NC(=O)[C@H](C)NC(=O)[C@H](CC(C)C)NC(=O)[C@H](CCCCN)NC(=O)[C@H](CCCCN)NC(=O)[C@H](C)NC(=O)[C@@H](N)Cc1ccccc1)C(=O)O [P61] | 32 | 8 | 16 | 16 | 128 | 32 | 2 | 140 | 127 | 170 | 105 | 66 | 100 | 390 | 16 | 5000 | 1.25 | 1.25 | 1.25 | 624 | E. coli UB1005 MIC (E. coli UB1005): 2; S. typhimurium 14028S MIC (S. typhimurium 14028S): 4; P. aeruginosa H374 MIC (P. aeruginosa H374 [1]): 4 µg/mL; WI38 LD50 (WI38): 93 µg/mL; CC50 at 24 h (in vitro [4]): 93 µg/mL (≈ 50.1 µM) |
| FAKLLAKLAKKVL-NH2 [P124] | 8 | 4 | 16 | 16 | > 128 | 64 | 8 | 10 | 30 | 14 | 18 | 10 | 9 | 55 | 16 | 2500 | 1.25 | 0.75 | 1.25 | 624 | paerug9027 (MIC) [5]: 100 µg/mL; staph6538 (MIC) [6]: 5 µg/mL; yeast (MIC or MFC) [7]: 100 µg/mL; WI38 LD50 (WI38): 21 µg/mL; CC50 at 24 h (in vitro [4]): 21 µg/mL |
| KWKLFKKKTKLFKKFAKKLAKKL-NH2 [P73] | 16 | 4 | 16 | 16 | > 128 | 64 | 4 | 360 | 115 | 270 | 150 | 97 | 70 | 90 | 8 | 2500 | 0.75 | 0.75 | 1.25 | 624 | paerug9027 (MIC) [5]: 15 µg/mL; staph6538 (MIC) [6]: 50 µg/mL; yeast (MIC or MFC) [7]: 100 µg/mL; WI38 LD50 (WI38): 160 µg/mL; CC50 at 24 h (in vitro [4]): 160 µg/mL |
| FAKLLAKALKKFAL-NH2 [P119, FAKLLAKALKKFAL-NH2] | 8 | 4 | 8 | 8 | 128 | 32 | 8 | 36 | 33 | 30 | 54 | 140 | 46 | 400 | 16 | 2500 | 1.25 | 0.75 | 1.25 | 624 | paerug9027 (MIC) [5]: 25 µg/mL; staph6538 (MIC) [6]: 50 µg/mL; yeast (MIC or MFC) [7]: 50 µg/mL; WI38 LD50 (WI38): 45 µg/mL; CC50 at 24 h (in vitro [4]): 45 µg/mL |
